This passage reports KD results from publication PMC6775132, “Systematic identification of metabolites controlling gene expression in E. coli” (Nature Communications, 2019).

Each structure is given as a SMILES string.

What all share (assay): microscale thermophoresis, labelled His-tagged protein
Type in all cases: binding
What all share (conditions): 50 mM NaH2PO4, 500 mM NaCl, pH 5.7, 21 °C; 50 nM protein

Test [1] deals with T1, ArgR (Escherichia coli, UniProt P0A6D0).
T1 construct: labelled through His-tag (RED-tris-NTA)
T1 sequence (P0A6D0 1-156): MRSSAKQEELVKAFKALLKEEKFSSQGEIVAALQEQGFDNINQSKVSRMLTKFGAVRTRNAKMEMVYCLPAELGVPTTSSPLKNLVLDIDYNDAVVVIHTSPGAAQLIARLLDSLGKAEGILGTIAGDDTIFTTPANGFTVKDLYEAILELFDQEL

Test [2] concerns the target T2, DhaR (Escherichia coli, UniProt P76016).
T2 construct: labelled through His-tag (RED-tris-NTA)
T2 sequence (P76016 1-639): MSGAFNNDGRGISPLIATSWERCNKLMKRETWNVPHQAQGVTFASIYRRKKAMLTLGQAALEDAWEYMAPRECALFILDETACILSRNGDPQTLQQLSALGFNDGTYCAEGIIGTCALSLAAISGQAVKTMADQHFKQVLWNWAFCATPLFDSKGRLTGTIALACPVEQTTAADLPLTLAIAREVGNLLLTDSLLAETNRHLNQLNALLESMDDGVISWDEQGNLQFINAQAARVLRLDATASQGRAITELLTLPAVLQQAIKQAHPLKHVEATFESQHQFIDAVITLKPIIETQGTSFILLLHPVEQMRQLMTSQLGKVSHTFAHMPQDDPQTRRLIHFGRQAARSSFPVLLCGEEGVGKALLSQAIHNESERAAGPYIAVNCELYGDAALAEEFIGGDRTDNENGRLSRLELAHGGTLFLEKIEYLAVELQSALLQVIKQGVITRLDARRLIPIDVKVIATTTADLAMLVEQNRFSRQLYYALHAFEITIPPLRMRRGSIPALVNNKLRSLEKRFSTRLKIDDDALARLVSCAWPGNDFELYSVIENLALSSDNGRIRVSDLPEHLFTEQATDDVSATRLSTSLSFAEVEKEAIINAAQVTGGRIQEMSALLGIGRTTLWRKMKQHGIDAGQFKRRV

The target in test [3] is T3, SgrR (Escherichia coli, UniProt P33595).
T3 construct: labelled through His-tag (RED-tris-NTA)
T3 sequence (P33595 1-551): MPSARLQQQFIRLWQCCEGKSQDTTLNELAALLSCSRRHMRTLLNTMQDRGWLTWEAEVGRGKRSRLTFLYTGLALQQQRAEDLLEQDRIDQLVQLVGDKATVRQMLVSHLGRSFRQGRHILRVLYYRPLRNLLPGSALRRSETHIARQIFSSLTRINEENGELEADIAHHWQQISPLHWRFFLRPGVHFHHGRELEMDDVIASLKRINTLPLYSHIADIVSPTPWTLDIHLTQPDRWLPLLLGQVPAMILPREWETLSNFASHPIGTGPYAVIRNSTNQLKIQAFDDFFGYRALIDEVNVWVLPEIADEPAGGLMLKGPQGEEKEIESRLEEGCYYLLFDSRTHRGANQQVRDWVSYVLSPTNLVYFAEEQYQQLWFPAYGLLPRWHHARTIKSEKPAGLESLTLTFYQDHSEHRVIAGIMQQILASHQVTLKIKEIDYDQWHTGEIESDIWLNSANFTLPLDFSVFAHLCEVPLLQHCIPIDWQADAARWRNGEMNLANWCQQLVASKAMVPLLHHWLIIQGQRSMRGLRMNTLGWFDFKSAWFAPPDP

Test [4] addresses T4, TrpR (Escherichia coli, UniProt P0A881).
T4 construct: labelled through His-tag (RED-tris-NTA)

For test [5], the target named is T5, SoxR (Escherichia coli, UniProt P0ACS2).
T5 construct: labelled through His-tag (RED-tris-NTA)
T5 sequence (P0ACS2 1-154): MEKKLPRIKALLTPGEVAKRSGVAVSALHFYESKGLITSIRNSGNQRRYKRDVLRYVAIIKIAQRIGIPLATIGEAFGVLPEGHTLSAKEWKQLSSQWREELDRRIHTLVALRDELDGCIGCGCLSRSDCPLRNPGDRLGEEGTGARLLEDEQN

`N=C(N)NCCC[C@H](N)C(=O)O` [arg, arginine]: the KD entry in test [1] is “also confirmed the known arginine–ArgR and tryptophan–TrpR interactions”. Regarding `O=C(CO)COP(=O)(O)O` [dhap, dihydroxyacetone phosphate], the KD result in test [2] is reported as “DhaR binds the glycolysis intermediate dihydroxyacetone phosphate (DHAP)”. For the molecule `N[C@@H](CCC(=O)O)C(=O)O` [glu, glutamate], the KD entry in test [3] was “SgrR binds glutamate”. For `N[C@@H](Cc1c[nH]c2ccccc12)C(=O)O` [trp, tryptophan], the KD result was “also confirmed the known arginine–ArgR and tryptophan–TrpR interactions” in test [4]; “In vitro MST assays validated that SoxR binds tryptophan” in test [5].
